The subject of data set [1] is CMS1 (HCT116, RKO, LoVo, SNU-C2A, LIM2405, WiDr) and CMS2 (CaCo2, HT55, CL14, SW403, GP2d, HCA24) cell lines. The data set is described as follows: Drug response curves (viability, AUC) in a panel of CMS1 and CMS2 cell lines. Format: cell-based. As to conditions: 72 h; 6 CMS1 and 6 CMS2 cell lines. The text has this:
The present invention will now be further described in the following examples with reference to the accompanying figures and sequences, nevertheless, without being limited thereto. For the purposes of the present invention, all references as cited herein are incorporated by reference in their entireties. In the Figures: • Figure 1: Classification of colorectal cancer cell lines into consensus molecular subtypes (CMS). • (A) Workflow of data collection and subtype classification. Expression data of CRC cell lines were retrieved from six publicly available datasets. For each dataset, the CMS of every cancer cell line was separately identified using the R package 'CMSclassifier'. The CMS that was determined by the majority of datasets was then considered as the consensus. Finally, genomic data from CCLE and COSMIC were used to analyse CMS specific distributions of mutations and copy number alterations. • (B) Distribution of CRC cell lines to different CMS. […] Drug response data from a large screen performed by Iorio et al. was combined with the CMS classification of CRC cell lines to identify differential drug effects between CMS1 and CMS2 cell lines. […] Cell lines were treated with increasing drug concentrations for 72 h. […] The CMS1 cell lines RKO and HCT116 and the CMS2 cell lines HT55 and CaCo2 were treated with increasing concentrations of YM155. Induction of apoptosis was measured by FACS after staining with APC Annexin V and 7-AAD. […] Data are shown as mean value ± s.e.m. of 3-4 independent replicates. Cell lysates were additionally analyzed by PARP and CASP8 immunoblot. β-actin serves as a loading control. […] CMS1 and 2 cell lines were treated with increasing concentrations of the Bcl2 inhibitor navitoclax for 72 h. […] The CMS1 cells lines RKO and HCT116 were treated with different concentrations of YM155 for 48 h and the expression of survivin was measured by qPCR. […] (E) HCT116, RKO, HT55 and CaCo2 cells were treated with 10 nM of YM155 for 24 h, after which global expression was determined by microarray analysis. […]

For data set [2], the system named is CMS1 and CMS2 CRC cell lines. The data set is described as follows: Analysis of public drug screen data (Iorio et al.): viability effect (AUC) in CMS-classified CRC cell lines. It is filed as cell-based. As to conditions: 8 CMS1 and 16 CMS2 CRC cell lines, 256 drugs, 2016. The text has this: The present invention will now be further described in the following examples with reference to the accompanying figures and sequences, nevertheless, without being limited thereto. For the purposes of the present invention, all references as cited herein are incorporated by reference in their entireties. In the Figures: • Figure 1: Classification of colorectal cancer cell lines into consensus molecular subtypes (CMS). • (A) Workflow of data collection and subtype classification. Expression data of CRC cell lines were retrieved from six publicly available datasets. For each dataset, the CMS of every cancer cell line was separately identified using the R package 'CMSclassifier'. The CMS that was determined by the majority of datasets was then considered as the consensus. […] Induction of apoptosis was measured by FACS after staining with APC Annexin V and 7-AAD. […] Cell lysates were additionally analyzed by PARP and CASP8 immunoblot. β-actin serves as a loading control. […] The CMS1 cells lines RKO and HCT116 were treated with different concentrations of YM155 for 48 h and the expression of survivin was measured by qPCR. […] (E) HCT116, RKO, HT55 and CaCo2 cells were treated with 10 nM of YM155 for 24 h, after which global expression was determined by microarray analysis. […]

The test system of data set [3] is CMS1 cell lines HCT116 and RKO. The data set is described as follows: Long-term proliferation assay. Particulars: CMS1 (HCT116, RKO) versus CMS2. Format: cell-based.
For data set [4], the system named is CMS1 cell lines RKO and HCT116 and the CMS2 cell lines HT55 and CaCo2. The data set is described as follows: Apoptosis by flow cytometry (APC Annexin V and 7-AAD). It is filed as cell-based. As to conditions: increasing concentrations; CMS1 (RKO, HCT116) versus CMS2 (HT55, CaCo2). The text has this: (§1) The present invention will now be further described in the following examples with reference to the accompanying figures and sequences, nevertheless, without being limited thereto. For the purposes of the present invention, all references as cited herein are incorporated by reference in their entireties. In the Figures: • Figure 1: Classification of colorectal cancer cell lines into consensus molecular subtypes (CMS). • (A) Workflow of data collection and subtype classification. Expression data of CRC cell lines were retrieved from six publicly available datasets. For each dataset, the CMS of every cancer cell line was separately identified using the R package 'CMSclassifier'. The CMS that was determined by the majority of datasets was then considered as the consensus. […] Heatmap showing the viability effect of YM155 on individual CMS1 and CMS2 cell lines within the screen (blue indicates a low viability as measured by the AUC). • (C-D) Validation of YM155 as a selective drug in CMS1 colorectal cancer. […] Induction of apoptosis was measured by FACS after staining with APC Annexin V and 7-AAD. […] Cell lysates were additionally analyzed by PARP and CASP8 immunoblot. β-actin serves as a loading control. […] The CMS1 cells lines RKO and HCT116 were treated with different concentrations of YM155 for 48 h and the expression of survivin was measured by qPCR. […]
Background: In flow cytometry, cells or beads pass a laser one at a time.

Data set [5] relates to PARP and CASP3. The data set is described as follows: Immunoblot of PARP and caspase cleavage. Format: cell-based. Particulars: cell lysates; CMS1 versus CMS2 cell lines. On the technique in general: Immunoblotting shows a protein as a band on a membrane.
Data set [6] has as its system survivin. As to the kind of experiment: Survivin transcript (qPCR) and protein levels after treatment. Format: cell-based. As to conditions: four CRC cell lines.
Text: as §1
A general note: In qPCR the cycle at which signal appears reflects the starting amount.

The test system of data set [7] is HCT116, RKO, HT55 and CaCo2 cells. The data set is described as follows: Global expression analysis by microarray after treatment. It is filed as cell-based. As to conditions: 10 nM, 24 h; CMS1 versus CMS2 cell lines.
Text: as §1

The test system of data set [8] is HCT116 and HT55. The data set is described as follows: Single knockout validation (SLC35F2, CCDC22, WASHC4, SNX17): drug-induced apoptosis by FACS. Format: cell-based.
Text: as §1

Data set [9] relates to solid tumours. Particulars: phase I and II trials, solid non-CRC tumours; cited from earlier work.

“Also recorded” adds a separate entry of the source.

Consider `O=c1[nH]cc(F)c(=O)[nH]1` [5-fluorouracil], for which, in [1], the “sensitivity of CMS1 versus CMS2 cell lines (dose response curves, comparison of AUCs)” value was “do not show a different viability effect in CMS1 and CMS2 colorectal cancer; also recorded: no difference in response rates could be detected between CMS1 and CMS2”.

Consider `CC1(C)CCC(c2ccc(Cl)cc2)=C(CN2CCN(c3ccc(C(=O)NS(=O)(=O)c4ccc(N[C@H](CCN5CCOCC5)CSc5ccccc5)c(S(=O)(=O)C(F)(F)F)c4)cc3)CC2)C1` [navitoclax], for which, in [1], the “sensitivity of CMS1 versus CMS2 cell lines (dose response curves, comparison of AUCs)” value was “does not show a significant difference between CMS1 and CMS2; also recorded: no difference in navitoclax sensitivity between CMS1 and CMS2 cell lines”.

Regarding `COCCn1c2c([n+](Cc3cnccn3)c1C)C(=O)c1ccccc1C2=O` [YM155, 11-(2-methoxyethyl)-2-methyl-4,9-dioxo-3-(pyrazin-2-ylmethyl)-4,9-dihydro-1H-naphtho(2,3-d)imidazolium bromide], in [2], the “differential effect between CMS1 and 2 (viability effect, AUC)” value is “selective effect on CMS1 cancer; also recorded: strongest differential effect between CMS1 and 2”. In addition, the “sensitivity of CMS1 versus CMS2 cell lines (dose response curves, comparison of AUCs)” value in data set [1] is on record as “significantly higher vulnerability of CMS1 colorectal cancer; also recorded: significantly more sensitive”. For the same compound, the “higher sensitivity of CMS1 cell lines” value in data set [3] is reported as “approximately 100 fold”. Moreover, in data set [4], the “induction of apoptosis (percentage of apoptotic cells)” value is given as “Apoptosis can be measured at lower concentrations in CMS1 cell lines; also recorded: apoptosis was induced in CMS1 cell lines at significantly lower concentrations”. Also, the “cleavage of PARP and CASP3” value in [5] is given as “detected at low concentrations in CMS1 but not CMS2 cell lines; also recorded: occurred at lower concentrations in RKO compared to CaCo2”. Besides, in data set [6], the “protein levels of survivin” value is given as “protein levels of survivin are only reduced at high concentrations”. Moreover, the “expression of survivin (transcript)” value in data set [6] (qPCR, 48 h) was “expression of survivin is only repressed in RKO cells”. Further, the global expression entry in data set [7] is reported as “global expression was dynamically reshaped upon treatment in CMS1 cell lines”. Besides, the “effect of candidate gene knockout on drug-induced apoptosis” value in [8] (HCT116 (CMS1)) is reported as “All candidate genes lead to resistance to YM155 induced apoptosis at different concentrations in HCT116; also recorded: resistance against YM155 induced apoptosis in HCT116”. Also, the “effect of candidate gene knockout on drug sensitivity” value in data set [8] (HT55 (CMS2)) is on record as “only SLC35F2 knockout mediates resistance in HT55; also recorded: did not change YM155 sensitivity in HT55”. Also, in data set [9], the “clinical benefit / efficacy” value is given as “efficacy results are mixed; also recorded: failed to show clinical benefit; also recorded: no clinical benefit was observed”; the “tolerability / toxicity profile” value was “safe and good tolerability and favourable toxicity profile”.

The record behind these values is patent publication EP3590935A1, “FUSED IMIDAZOLIUM DERIVATIVES FOR USE IN THE TREATMENT OF COLORECTAL CANCER” (Deutsches Krebsforschungszentrum, Stiftung des öffentlichen …, priority 2018, dated 2020).
